Results from ChEMBL document CHEMBL1152643, “Tedanol: a potent anti-inflammatory ent-pimarane diterpene from the Caribbean Sponge Tedania ignis” (Bioorg Med Chem, 2009).
Calls of active or inactive are those of the source. The rule behind the calls is not given here.

Key:
Type in all cases: functional, organism-based
Mus musculus [1] = experiment: Antiinflammatory activity against carrageenan-induced inflammation in CD1 mouse assessed as inhibition of COX2 activity in early edema phase at 1 mg/kg, ip after 2 to 4 hrs by Western blot; parameters: dose 1 mg/kg
Mus musculus [2] = experiment: Antiinflammatory activity against carrageenan-induced inflammation in CD1 mouse assessed as inhibition of iNOS expression at 1 mg/kg, ip after 2 hrs by Western blot; parameters: dose 1 mg/kg
Mus musculus [3] = experiment: Antiinflammatory activity against carrageenan-induced inflammation in CD1 mouse assessed as inhibition of iNOS expression at 1 mg/kg, ip after 48 hrs by Western blot; parameters: dose 1 mg/kg
Mus musculus [4] = experiment: Antiinflammatory activity against carrageenan-induced inflammation in CD1 mouse assessed as inhibition of MPO activity at 1 mg/kg, ip after 48 hrs; parameters: dose 1 mg/kg
Mus musculus [5] = experiment: Antiinflammatory activity against carrageenan-induced inflammation in CD1 mouse assessed as inhibition of COX1 activity in second edema phase at 1 mg/kg, ip after 24 to 72 hrs by Western blot; parameters: dose 1 mg/kg
Mus musculus [6] = experiment: Antiinflammatory activity in ip dosed CD1 mouse assessed as inhibition of carrageenan-induced paw edema by hydroplethismometer
Mus musculus [7] = experiment: Antiinflammatory activity against carrageenan-induced inflammation in CD1 mouse assessed as inhibition of MPO activity at 1 mg/kg, ip after 4 hrs; parameters: dose 1 mg/kg
Mus musculus [8] = experiment: Antiinflammatory activity against carrageenan-induced inflammation in CD1 mouse assessed as inhibition of COX1 activity in second edema phase at 1 mg/kg, ip after 2 to 4 hrs by Western blot; parameters: dose 1 mg/kg
Mus musculus [9] = experiment: Antiinflammatory activity against carrageenan-induced inflammation in CD1 mouse assessed as inhibition of COX2 activity in second edema phase at 1 mg/kg, ip after 24 to 72 hrs by Western blot; parameters: dose 1 mg/kg

## CC1(C)[C@H](Br)CC[C@@]2(C)C3=CC[C@](C)([C@@H](Br)COS(=O)(=O)O)C[C@H]3[C@H](O)C[C@H]12
Mus musculus [1]
  Activity: Active
Mus musculus [2]
  Activity: Active
Mus musculus [3]
  Activity: Active
Mus musculus [4]
  Activity: Active
Mus musculus [5]
  Activity: Active
Mus musculus [6]
  Activity: Dose-dependent effect
Mus musculus [7]
  Activity: Active
Mus musculus [8]
  Activity: inactive
Mus musculus [9]
  Activity: Active
